Measured values: patent US8952033B2, “4-anilinofuro[2,3-b]quinoline derivatives, their preparation processes, and pharmaceutical compositions comprising the same” (Kaohsiung Medical University, priority 2011, dated 2015)

Key:
[1] = test system: A549 (human lung adenocarcinoma cell); experiment: Preferential antiproliferative activity, A549; format: cell-based
Procedure: (§1) Determination of GI50 of compounds 13a, 13c, 14a, 14c, 15a, 16a was conducted substantially according to the method as described in the preceding section A entitled “Evaluation of antiproliferative activity”, except that the normal cell line MRC-5 was also utilized, and that camptothecin and daunorubicin were tested instead of compounds 1, 2, 3. The concentration of the respective test compound, which can reduce absorbance by 50% (compared with DMSO), is regarded as GI50, and can be determined via dose-response curves. Determination of GI50 was conducted thrice for each test compound. GI50 is expressed as mean±SD.
(§2) SI stands for selectivity index and was calculated by substituting GI50 into the following formula: D=E/F (2) where • D=SI • E=GI50 of the respective test compound for cells of the normal cell line • F=GI50 of the respective test compound for cells of the cancer cell line The experimental results are summarized in Table 4. […]

[2] = test system: NCI-H1299 (non-small cell lung carcinoma cell); experiment: Preferential antiproliferative activity, NCI-H1299; format: cell-based
Procedure: as §1, §2

[3] = test system: NCI-H460 cells; experiment: In vivo inhibition of lung cancer cells, NCI-H460 tumor in nude mice; parameters: species or system Balb/C athymic nude mice; details: for Survival rate: Day 80 (control all dead)
Procedure: 10^6 NCI-H460 cells were mixed evenly with a proper amount of Matrigel (BD Biosciences). The resultant mixture was injected subcutaneously into each of the nude mice on a dorsal flank close to an upper portion of a hind leg.
The nude mice bearing a tumor were randomly divided into two groups. The first group (n=14) of the nude mice was used to evaluate the effect of compound 13a after intraperitoneal injection, and was further divided into three subgroups including 10 mg/kg group (n=4), 20 mg/kg group (n=6), and a control group (n=4). Compound 13a (in DMSO/Tween 80/PBS (1/1/8, v/v/v)) was administered to the nude mice in 10 mg/kg group and 20 mg/kg group respectively at a dose of 10 mg/kg and a dose of 20 mg/kg via intraperitoneal injection, and 5% dextrose was administered to the nude mice in the control group at the same dosing volume as compound 13a via intraperitoneal injection.
The second group (n=28) of the nude mice was used to evaluate the effect of compound 13a after oral administration, and was further divided into three subgroups including 60 mg/kg group (n=10), 120 mg/kg group (n=10), and a control group (n=8). Compound 13a (in a normal saline solution containing 1% DMSO, 1.4% Tween 80, and 1% sodium carboxymethyl cellulose (Sigma), and serving as a vehicle) was administered to the nude mice in 60 mg/kg group and 120 mg/kg group respectively at a dose of 60 mg/kg and a dose of 120 mg/kg via tube feeding (0.22-0.26 mL of the mixture of compound 13a and the vehicle/nude mouse), and the vehicle was administered to the mice in the control group at a dose of 10 mL/kg via tube feeding.
Administration was conducted once daily for 6 consecutive days. For the first group of the nude mice, the size of the tumor on the dorsal flank was measured with calipers every 9 days for 100 consecutive days. For the second group of the nude mice, the survival rate was calculated every 10 days starting on Day 1 (i.e., the day of the […] administration) for 80 consecutive days, and the size of the tumor on the dorsal flank was measured with the calipers every 3 days for 32 consecutive days.

C/C(=N\OCCN)c1ccc(Nc2c3ccccc3nc3occc23)cc1 [Compound 13a, (E)-1-(4-(furo[2,3-b]quinolin-4-ylamino)phenyl)ethanone O-2-aminoethyl oxime]
GI50 ([1]; Homo sapiens, A549, mean±SD): 6.58 ± 2.99 µM
SI A549 ([1]; versus MRC-5): 6.51
GI50 ([2]; Homo sapiens, NCI-H1299, mean±SD): 3.08 ± 1.12 µM
SI NCI-H1299 ([2]; versus MRC-5): 13.91
Size of the tumor ([3]; intraperitoneal injection, 10 mg/kg and 20 mg/kg once daily for 6 days, versus control): generally grew more slowly with time
Size of the tumor ([3]; oral administration, 60 mg/kg and 120 mg/kg once daily for 6 days, versus control): generally grew more slowly with time
Survival rate ([3]; oral administration, 60 mg/kg group): 50%
Survival rate ([3]; oral administration, 120 mg/kg group): 50%
Size of the tumor ([3]; oral administration, 120 mg/kg once daily for 6 days): diminished in size after Day 16
